Patent US10227323B2, “Glucosylceramide synthase inhibitors for the treatment of diseases” (BIOMARIN PHARMACEUTICAL INC., priority 2013, dated 2019)

These molecules were tested against T1, GCS (Canis lupus familiaris, UniProt A0A8I3MXG6) (assay: Assay 1: GCS Enzymatic Assay (MDCK cell lysate, C6-NBD-Ceramide, LC/MS)). Details: Table 2; data without asterisk; read-out: IC50 (nM) generated from Assay 1.
T1 sequence (A0A8I3MXG6 1-394): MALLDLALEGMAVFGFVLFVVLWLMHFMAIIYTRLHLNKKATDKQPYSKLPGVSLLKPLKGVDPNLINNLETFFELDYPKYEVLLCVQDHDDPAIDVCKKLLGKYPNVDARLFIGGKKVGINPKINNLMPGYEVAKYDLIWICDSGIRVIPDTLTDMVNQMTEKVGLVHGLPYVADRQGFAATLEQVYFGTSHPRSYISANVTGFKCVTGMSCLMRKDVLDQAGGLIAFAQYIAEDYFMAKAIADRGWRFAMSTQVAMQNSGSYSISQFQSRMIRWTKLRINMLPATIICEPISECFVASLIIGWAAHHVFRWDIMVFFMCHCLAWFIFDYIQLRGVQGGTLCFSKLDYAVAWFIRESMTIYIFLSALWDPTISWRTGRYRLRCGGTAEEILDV
Format: biochemical, canine
Outline: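 LC/MS/MS measurement of glucosylceramide and NBD-ceramide after a 1 h, 37 °C reaction with 100 μM UDP-glucose and 10 μM C6-NBD-ceramide gave IC50s or percent inhibition.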

IC50, < 50 nM:
O=C(N[C@H](CN1CCCC1)[C@H](O)c1ccc(OC2CC2)c(Cl)c1)C(=O)c1ccc(-c2ccc3ncsc3c2)cc1 [Example 297, 2-(4-(benzo[d]thiazol-6-yl)phenyl)-N-((1R,2R)-1-(3-chloro-4-cyclopropoxyphenyl)-1-hydroxy-3-(pyrrolidin-1-yl)propan-2-yl)-2-oxoacetamide]
Cc1cc(C(=O)C(=O)N[C@H](CN2CCCC2)[C@H](O)c2ccc(OC3CC3)c(Cl)c2)ccc1-c1ccc(F)cc1 [Example 298, N-((1R,2R)-1-(3-chloro-4-cyclopropoxyphenyl)-1-hydroxy-3-(pyrrolidin-1-yl)propan-2-yl)-2-(4′-fluoro-2-methyl-[1,1′-biphenyl]-4-yl)-2-oxoacetamide]
Cc1cc(C(=O)C(=O)N[C@H](CN2CCCC2)[C@H](O)c2cc(F)c3c(c2)OCCO3)ccc1-c1ccc(F)cc1 [Example 299, N-((1R,2R)-1-(8-fluoro-2,3-dihydrobenzo[b][1,4]dioxin-6-yl)-1-hydroxy-3-(pyrrolidin-1-yl)propan-2-yl)-2-(4′-fluoro-2-methyl-[1,1′-biphenyl]-4-yl)-2-oxoacetamide]
O=C(N[C@H](CN1CCC1)[C@H](O)c1cc(Cl)c2c(c1)OCCO2)C(=O)c1ccc(-c2ccc(F)cc2)cc1 [Example 300, N-((1R,2R)-3-(azetidin-1-yl)-1-(8-chloro-2,3-dihydrobenzo[b][1,4]dioxin-6-yl)-1-hydroxypropan-2-yl)-2-(4′-fluoro-[1,1′-biphenyl]-4-yl)-2-oxoacetamide]
N#Cc1ccc(-c2ccc(C(=O)C(=O)N[C@H](CN3CCCC3)[C@H](O)c3ccc(OC4CC4)c(Cl)c3)cc2)cc1 [Example 301, N-((1R,2R)-1-(3-chloro-4-cyclopropoxyphenyl)-1-hydroxy-3-(pyrrolidin-1-yl)propan-2-yl)-2-(4′-cyano-[1,1′-biphenyl]-4-yl)-2-oxoacetamide]
O=C(N[C@H](CN1CCCC1)[C@H](O)c1ccc(OC2CC2)c(Cl)c1)C(=O)c1ccc2oc3ccc(Br)cc3c2c1 [Example 302, 2-(8-bromodibenzo[b,d]furan-2-yl)-N-((1R,2R)-1-(3-chloro-4-cyclopropoxyphenyl)-1-hydroxy-3-(pyrrolidin-1-yl)propan-2-yl)-2-oxoacetamide]
[2H]C([2H])(C(=O)N[C@H](CN1CCCC1)[C@H](O)c1ccc(OC2CC2)c(Cl)c1)c1ccc(-c2ccc(F)cc2)cc1 [Example 303, N-[(1R,2R)-2-(3-chloro-4-cyclopropoxyphenyl)-2-hydroxy-1-(pyrrolidinylmethyl)ethyl]-2-[4-(4-fluorophenyl)phenyl]acetamide]
O=C(N[C@H](CN1CCCC1)[C@H](O)c1ccc(OC2CC2)c(Cl)c1)C(=O)c1ccc2nn(Cc3ccc(F)cc3)cc2c1 [Example 304, N-((1R,2R)-1-(3-chloro-4-cyclopropoxyphenyl)-1-hydroxy-3-(pyrrolidin-1-yl)propan-2-yl)-2-(2-(4-fluorobenzyl)-2H-indazol-5-yl)-2-oxoacetamide]
O=C(N[C@H](CN1CCCC1)[C@H](O)c1cc(F)c2c(c1)OCCO2)C(=O)c1ccc2nn(Cc3ccc(F)cc3)cc2c1 [Example 305, N-((1R,2R)-1-(8-fluoro-2,3-dihydrobenzo[b][1,4]dioxin-6-yl)-1-hydroxy-3-(pyrrolidin-1-yl)propan-2-yl)-2-(2-(4-fluorobenzyl)-2H-indazol-5-yl)-2-oxoacetamide]
CC(C)n1ncc2ccc(C(=O)C(=O)N[C@H](CN3CCCC3)[C@H](O)c3ccc(OC4CC4)c(Cl)c3)cc21 [Example 306, N-((1R,2R)-1-(3-chloro-4-cyclopropoxyphenyl)-1-hydroxy-3-(pyrrolidin-1-yl)propan-2-yl)-2-(1-isopropyl-1H-indazol-6-yl)-2-oxoacetamide]
CC(C)n1ncc2ccc(C(=O)C(=O)N[C@H](CN3CCCC3)[C@H](O)c3cc(F)c4c(c3)OCCO4)cc21 [Example 307, N-((1R,2R)-1-(8-fluoro-2,3-dihydrobenzo[b][1,4]dioxin-6-yl)-1-hydroxy-3-(pyrrolidin-1-yl)propan-2-yl)-2-(1-isopropyl-1H-indazol-6-yl)-2-oxoacetamide]
O=C(N[C@H](CN1CCCC1)[C@H](O)c1cc(F)c2c(c1)OCCO2)C(=O)c1cc2ccc(Cl)cc2s1 [Example 308, 2-(6-chlorobenzo[b]thiophen-2-yl)-N-((1R,2R)-1-(8-fluoro-2,3-dihydrobenzo[b][1,4]dioxin-6-yl)-1-hydroxy-3-(pyrrolidin-1-yl)propan-2-yl)-2-oxoacetamide]
O=C(N[C@H](CN1CCCC1)[C@H](O)c1ccc(OC2CCCC2)c(Cl)c1)C(=O)c1ccc(-c2ccc(F)cc2)cc1 [Example 309, N-((1R,2R)-1-(3-chloro-4-(cyclopentyloxy)phenyl)-1-hydroxy-3-(pyrrolidin-1-yl)propan-2-yl)-2-(4′-fluoro-[1,1′-biphenyl]-4-yl)-2-oxoacetamide]
Cc1c2cc(-c3ccc(C(=O)C(=O)N[C@H](CN4CCCC4)[C@H](O)c4ccc(OC5CC5)c(Cl)c4)cc3)ccc2nn1C(C)C [Example 310, N-((1R,2R)-1-(3-chloro-4-cyclopropoxyphenyl)-1-hydroxy-3-(pyrrolidin-1-yl)propan-2-yl)-2-(4-(2-isopropyl-3-methyl-2H-indazol-5-yl)phenyl)-2-oxoacetamide]
CC(C)n1cc2cc(C(=O)C(=O)N[C@H](CN3CCCC3)[C@H](O)c3ccc(OC4CC4)c(Cl)c3)ccc2n1 [Example 311, N-((1R,2R)-1-(3-chloro-4-cyclopropoxyphenyl)-1-hydroxy-3-(pyrrolidin-1-yl)propan-2-yl)-2-(2-isopropyl-2H-indazol-5-yl)-2-oxoacetamide]
CC(C)n1cc2ccc(C(=O)C(=O)N[C@H](CN3CCCC3)[C@H](O)c3cc(F)c4c(c3)OCCO4)cc2n1 [Example 312, N-((1R,2R)-1-(8-fluoro-2,3-dihydrobenzo[b][1,4]dioxin-6-yl)-1-hydroxy-3-(pyrrolidin-1-yl)propan-2-yl)-2-(2-isopropyl-2H-indazol-6-yl)-2-oxoacetamide]
O=C(N[C@H](CN1CCCC1)[C@H](O)c1ccc(OC2CCC2)c(Cl)c1)C(=O)c1ccc(-c2ccc(F)cc2)cc1 [Example 313, N-((1R,2R)-1-(3-chloro-4-cyclobutoxyphenyl)-1-hydroxy-3-(pyrrolidin-1-yl)propan-2-yl)-2-(4′-fluoro-[1,1′-biphenyl]-4-yl)-2-oxoacetamide]
Cc1nn(C(C)C)c2ccc(-c3ccc(C(=O)C(=O)N[C@H](CN4CCCC4)[C@H](O)c4ccc(OC5CC5)c(Cl)c4)cc3)cc12 [Example 314, N-((1R,2R)-1-(3-chloro-4-cyclopropoxyphenyl)-1-hydroxy-3-(pyrrolidin-1-yl)propan-2-yl)-2-(4-(1-isopropyl-3-methyl-1H-indazol-5-yl)phenyl)-2-oxoacetamide]
Cc1cc(F)ccc1-c1ccc(C(=O)C(=O)N[C@H](CN2CCCC2)[C@H](O)c2cc(F)c3c(c2)OCCO3)cc1 [Example 315, 2-(4′-fluoro-2′-methyl-[1,1′-biphenyl]-4-yl)-N-((1R,2R)-1-(8-fluoro-2,3-dihydrobenzo[b][1,4]dioxin-6-yl)-1-hydroxy-3-(pyrrolidin-1-yl)propan-2-yl)-2-oxoacetamide]
CC(C)n1cc2ccc(C(=O)C(=O)N[C@H](CN3CCCC3)[C@H](O)c3ccc(OC4CC4)c(Cl)c3)cc2n1 [Example 316, N-((1R,2R)-1-(3-chloro-4-cyclopropoxyphenyl)-1-hydroxy-3-(pyrrolidin-1-yl)propan-2-yl)-2-(2-isopropyl-2H-indazol-6-yl)-2-oxoacetamide]
Cc1nn(C(C)C)c2ccc(C(=O)C(=O)N[C@H](CN3CCCC3)[C@H](O)c3ccc(OC4CC4)c(Cl)c3)cc12 [Example 317, N-((1R,2R)-1-(3-chloro-4-cyclopropoxyphenyl)-1-hydroxy-3-(pyrrolidin-1-yl)propan-2-yl)-2-(1-isopropyl-3-methyl-1H-indazol-5-yl)-2-oxoacetamide]
Cc1nn(C)c2ccc(-c3ccc(C(=O)C(=O)N[C@H](CN4CCCC4)[C@H](O)c4ccc(OC5CC5)c(Cl)c4)cc3)cc12 [Example 318, N-((1R,2R)-1-(3-chloro-4-cyclopropoxyphenyl)-1-hydroxy-3-(pyrrolidin-1-yl)propan-2-yl)-2-(4-(1,3-dimethyl-1H-indazol-5-yl)phenyl)-2-oxoacetamide]
O=C(N[C@H](CN1CCCC1)[C@H](O)c1ccc2c(c1)OC=CO2)C(=O)c1ccc(-c2ccc(F)cc2)cc1 [Example 319, N-((1R,2R)-1-(benzo[b][1,4]dioxin-6-yl)-1-hydroxy-3-(pyrrolidin-1-yl)propan-2-yl)-2-(4′-fluoro-[1,1′-biphenyl]-4-yl)-2-oxoacetamide]
O=C(N[C@H](CN1CCCC1)[C@H](O)c1ccc(SC2CC2)c(Cl)c1)C(=O)c1ccc(-c2ccc(F)cc2)cc1 [Example 320, N-((1R,2R)-1-(3-chloro-4-(cyclopropylthio)phenyl)-1-hydroxy-3-(pyrrolidin-1-yl)propan-2-yl)-2-(4′-fluoro-[1,1′-biphenyl]-4-yl)-2-oxoacetamide]
